Measurements reported in patent US6518269B1, “Cancer treatment” (University of Arizona Foundation, priority 2000, dated 2003).
pIC50: −log10 of the molar value.

Columns and labels:
HT29 Colon Cancer = experiment: MTT growth inhibition assay, HT29 Colon Cancer; type: cell-based; settings: Homo sapiens, HT-29, HT29 Colon Cancer cells
Method: (§1) Each of the following compounds was tested for growth inhibition in a MTT assay against B16 Murine Melanoma and HT29 Colon Cancer, reported as IC50(μM).

B16 Murine Melanoma = experiment: MTT growth inhibition assay, B16 Murine Melanoma; type: cell-based; settings: Mus musculus, B16 Murine Melanoma cells
Method: as §1

pIC50 (HT29 Colon Cancer) | pIC50 (B16 Murine Melanoma) | Structure (SMILES)
7.72 | 5.96 | Cc1nnc(N/N=C/c2ccccc2O)[nH]c1=O [Compound II, benzaldehyde, 2-hydroxy-, (4-hydro-5-oxo-6-methyl-1,2,4-triazin-3-yl)hydrazide]
8.15 | 6.58 | O=c1cnnc(N/N=C/c2ccccc2O)[nH]1 [Compound I, benzaldehyde, 2-hydroxy-, (4-hydro-5-oxo-1,2,4-triazin-3-yl)hydrazide]
